# Like-named read-outs stand apart in the source and are kept apart here.
# Assays:
# wildtype Kras / hSOS1 = target: T1, wildtype Kras / hSOS1 (Homo sapiens, UniProt P01116); experiment: HTRF assay, wildtype Kras / SOS1 interaction; type: binding; conditions: read-out: IC50 against wildtype Kras
# T1 construct: made in house; host or cells: E. coli BL21 (DE3)
# Outline: (§1)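 Buffer ~5 mM HEPES pH 7.4, ~150 mM NaCl, ~1 mM DTT, 0.05% BSA, 0.0025% Igepal. Cpd in DMSO + Ras/donor mix + SOS1/acceptor mix; ≥10 min; HTRF 665/620 ratio → IC50.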
# [1] = target: GST-tagged K-Ras mutant / His-tagged hSOS1 (Homo sapiens, UniProt P01116); experiment: HTRF assay, K-Ras mutant / SOS1 interaction; type: binding; conditions: read-out: IC50 against mutant Kras
# Outline: as §1
# [2] = compound nos. 102-196, general methodology of example 5
# T1 sequence (P01116 1-188 isoform P01116-2): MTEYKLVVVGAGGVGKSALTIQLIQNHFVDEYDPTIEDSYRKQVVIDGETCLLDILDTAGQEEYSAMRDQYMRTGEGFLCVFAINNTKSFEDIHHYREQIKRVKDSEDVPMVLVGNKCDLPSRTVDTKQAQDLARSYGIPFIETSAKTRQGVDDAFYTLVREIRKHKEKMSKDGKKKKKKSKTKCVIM
# Chain of GST-tagged K-Ras mutant / His-tagged hSOS1 (P01116 whole entry G12D, form open): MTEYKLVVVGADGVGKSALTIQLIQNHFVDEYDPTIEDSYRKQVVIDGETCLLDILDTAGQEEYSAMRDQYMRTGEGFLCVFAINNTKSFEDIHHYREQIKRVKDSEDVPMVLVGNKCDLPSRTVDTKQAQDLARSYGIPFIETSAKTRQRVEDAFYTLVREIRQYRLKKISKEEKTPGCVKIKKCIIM
Compound,IC50 (wildtype Kras / hSOS1; compound nos. 401-703) [µM],IC50 ([1]; compound nos. 401-703) [µM],other results
"CN1CCC[C@H]1COc1nc(N2[C@@H]3CC[C@H]2CNC3)c2cc(Cl)c(-c3cccc4sc(N)nc34)c(F)c2n1 [Compound 306, 4-(4-((1R,5S)-3,8-diaza-bicyclo[3.2.1]octan-8-yl)-6-chloro-8-fluoro-2-(((S)-1-methylpyrrolidin-2-yl)meth-oxy)quinazolin-7-yl)benzo-[d]thiazol-2-amine]",,,IC50 (wildtype Kras / hSOS1; compound nos. 301-306): < 1.5 µM; IC50 ([1]; compound nos. 301-306): < 1.5 µM
"CN1CCC[C@H]1COc1nc(N2CCNC(=O)CC2)c2cc(Cl)c(-c3cccc4sc(N)nc34)c(F)c2n1 [Compound 142, 1-(7-(2-aminobenzo[d]-thiazol-4-yl)-6-chloro-8-fluoro-2-(((S)-1-methyl-pyrrolidin-2-yl)methoxy)-quinazolin-4-yl)-1,4-diazepan-5-one]",,,"IC50 (wildtype Kras / hSOS1; [2]): < 0.5 µM; IC50 [1, 2]: < 0.5 µM"
"CN1CCC[C@H]1COc1nc(N2CCNCC(F)(F)C2)c2cc(Cl)c(-c3cccc4sc(N)nc34)c(F)c2n1 [Compound 102, 4-(6-chloro-4-(6,6-difluoro-1,4-diazepan-1-yl)-8-fluoro-2-(((S)-1-methylpyrrolidin-2-yl)methoxy)quinazolin-7-yl)benzo[d]thiazol-2-amine]",,,"IC50 (wildtype Kras / hSOS1; [2]): < 0.5 µM; IC50 [1, 2]: < 0.5 µM"
"Nc1nc2c(-c3c(Cl)cc4c(N5C[C@H]6CCNCC[C@H]6C5)nc(OC[C@@]56CCCN5C[C@H](F)C6)nc4c3F)ccc(F)c2s1 [Compound 528, 4-(6-chloro-8-fluoro-2-(((2R,7aS)-2-fluorotetra-hydro-1H-pyrrolizin-7a(5H)-yl)methoxy)-4-((3aR,8aS)-octahydropyr-rolo[3,4-d]azepin-2(1H)-yl)quinazolin-7-yl)-7-fluorobenzo[d]thiazol-2-amine]",> 0.5,< 0.5,
"Cc1nc(N2CCCCCC2)c2cc(Cl)c(-c3cccc4sc(N)nc34)cc2n1 [Compound 645, 4-(4-(azepan-1-yl)-6-chloro-2-methylquinazolin-7-yl)-benzo[d]thiazol-2-amine]",> 0.5,> 0.5,
"N#Cc1c(N)sc2c(F)ccc(-c3c(Cl)cc4c(N5CC6CCC(C5)N6C5CCOC5)nc(OC[C@@]56CCCN5C[C@H](F)C6)nc4c3F)c12 (stereo partly drawn) [Compound 605, 2-amino-4-(6-chloro-8-fluoro-2-(((2R,7aS)-2-fluoro-tetrahydro-1H-pyrrolizin-7a(5H)-yl)methoxy)-4-((1R,5S)-8-(tetrahydro-furan-3-yl)-3,8-diazabicyclo-[3.2.1]octan-3-yl)quinazolin-7-yl)-7-fluorobenzo[b]thio-phene-3-carbonitrile]",> 0.5,< 0.5,
"Fc1c(-c2cccc3c2CCCS3)c(Cl)cc2c(N3CC4CCC(C3)N4)nc(OC[C@@]34CCCN3C[C@H](F)C4)nc12 [Compound 637, 4-(3,8-diazabicyclo[3.2.1]-octan-3-yl)-6-chloro-8-fluoro-2-(((2R,7aS)-2-fluoro-tetrahydro-1H-pyrrolizin-7a(5H)-yl)methoxy)-7-(thio-chroman-5-yl)quinazoline]",> 0.5,> 0.5,
"Nc1nc2c(-c3c(Cl)cc4c(N5CC6CNCC(C5)N6)nc(OC[C@@]56CCCN5C[C@H](F)C6)nc4c3F)ccc(F)c2s1 [Compound 639, 4-(4-(3,7,9-triazabicyclo-[3.3.1]nonan-3-yl)-6-chloro-8-fluoro-2-(((2R,7aS)-2-fluorotetrahydro-1H-pyrrol-izin-7a(5H)-yl)methoxy)-quinazolin-7-yl)-7-fluoro-benzo[d]thiazol-2-amine]",> 0.5,< 0.5,
"Cc1ccc(C(N)=O)cc1-c1c(Cl)cc2c(N3CC4CCC(C3)N4)nc(OCC34CCCN3CCC4)nc2c1F [Compound 417, 3-(4-(3,8-diazabicyclo-[3.2.1]octan-3-yl)-6-chloro-8-fluoro-2-((tetrahydro-1H-pyrrolizin-7a(5H)-yl)meth-oxy)quinazolin-7-yl)-4-methylbenzamide]",< 0.5,> 0.5,
"Fc1c(-c2cccc3ccsc23)c(Cl)cc2c(N3CC4CCC(C3)N4)nc(OC[C@@]34CCCN3C[C@H](F)C4)nc12 [Compound 560, 7-(benzo[b]thiophen-7-yl)-4-(3,8-diazabicyclo[3.2.1]-octan-3-yl)-6-chloro-8-fluoro-2-(((2R,7aS)-2-fluorotetrahydro-1H-pyrrol-izin-7a(5H)-yl)methoxy)-quinazoline]",> 0.5,> 0.5,
"CN1CCC[C@H]1COc1nc(N2CCNCC(F)(F)C2)c2cc(C#N)c(-c3cccc4sc(N)nc34)c(F)c2n1 [Compound 125, 7-(2-aminobenzo[d]thiazol-4-yl)-4-(6,6-difluoro-1,4-diazepan-1-yl)-8-fluoro-2-(((S)-1-methylpyrrolidin-2-yl)methoxy)quinazoline-6-carbonitrile]",,,"IC50 (wildtype Kras / hSOS1; [2]): > 0.5 µM; IC50 [1, 2]: > 0.5 µM"
"Nc1nc2c(-c3c(Cl)cc4c(N5CCCCC56CNC6)nc(OC[C@@]56CCCN5C[C@H](F)C6)nc4c3F)ccc(F)c2s1 [Compound 629, 4-(6-chloro-8-fluoro-2-(((2R,7aS)-2-fluorotetra-hydro-1H-pyrrolizin-7a(5H)-yl)methoxy)-4-(2,5-diaza-spiro[3.5]nonan-5-yl)quin-azolin-7-yl)-7-fluorobenzo-[d]thiazol-2-amine]",> 0.5,> 0.5,
"CN1CCC[C@H]1COc1nc(N2CCCCC(F)C2)c2cc(Cl)c(-c3cccc4sc(N)nc34)c(F)c2n1 (stereo partly drawn) [Compound 181, 4-(6-chloro-8-fluoro-4-(3-fluoroazepan-1-yl)-2-(((S)-1-methylpyrrolidin-2-yl)-methoxy)quinazolin-7-yl)-benzo[d]thiazol-2-amine]",,,"IC50 (wildtype Kras / hSOS1; [2]): < 0.5 µM; IC50 [1, 2]: < 0.5 µM"
"CN(C)CC1(COc2nc(N3C[C@H]4CC[C@@H](C3)N4)c3cc(Cl)c(-c4cc(O)cc5ccccc45)c(F)c3n2)CC1 [Compound 701, 4-(4-((1R,5S)-3,8-diazabicyclo[3.2.1]octan-3-yl)-6-chloro-2-((1-((dimethylamino)methyl)cyclopropyl)methoxy)-8-fluoroquinazolin-7-yl)naphthalen-2-ol]",> 0.5,< 0.5,
"Nc1nc2c(-c3c(Cl)cc4c(N5[C@@H]6CCC[C@H]5C[C@H](O)C6)nc(OC[C@@]56CCCN5C[C@H](F)C6)nc4c3F)ccc(F)c2s1 [Compound 305, (1R,3R,5S)-9-(7-(2-amino-7-fluorobenzo[d]thiazol-4-yl)-6-chloro-8-fluoro-2-(((2R,7aS)-2-fluorotetra-hydro-1H-pyrrolizin-7a(5H)-yl)methoxy)quinazolin-4-yl)-9-azabicyclo[3.3.1]-nonan-3-ol]",,,IC50 (wildtype Kras / hSOS1; compound nos. 301-306): < 1.5 µM; IC50 ([1]; compound nos. 301-306): < 1.5 µM
"Nc1ccc2cccc(-c3ccc4c(N5CC6CCC(C5)N6)nc(OCC56CCCN5CCC6)nc4c3F)c2n1 [Compound 596, 8-(4-(3,8-diazabicyclo-[3.2.1]octan-3-yl)-8-fluoro-2-((tetrahydro-1H-pyrrol-izin-7a(5H)-yl)methoxy)-quinazolin-7-yl)quinolin-2-amine]",> 0.5,> 0.5,
"N#Cc1c(N)sc2c(F)ccc(-c3c(Cl)cc4c(N5CC6CCC(C5)N6)nc(OC[C@@]56CCCN5C[C@H](F)C6)nc4c3F)c12 [Compound 673, 4-(4-(3,8-diazabicyclo-[3.2.1]octan-3-yl)-6-chloro-8-fluoro-2-(((2R,7aS)-2-fluorotetrahydro-1H-pyrrol-izin-7a(5H)-yl)methoxy)-quinazolin-7-yl)-2-amino-7-fluorobenzo[b]thiophene-3-carbonitrile]",> 0.5,< 0.5,
"Nc1c(-c2c(Cl)cc3c(N4CC5CCC(C4)N5)nc(OCC45CCCN4CCC5)nc3c2F)cccc1C(F)(F)F [Compound 527, 2-(4-(3,8-diazabicyclo-[3.2.1]octan-3-yl)-6-chloro-8-fluoro-2-((tetrahydro-1H-pyrrolizin-7a(5H)-yl)meth-oxy)quinazolin-7-yl)-6-(trifluoromethyl)aniline]",> 0.5,> 0.5,
"Oc1cc(-c2c(Cl)cc3c(N4CC5CCC(C4)N5)nc(OCC45CCCC4CCC5)nc3c2F)c2ccccc2c1 (centres unmarked) [Compound 410, 4-(4-(3,8-diazabicyclo-[3.2.1]octan-3-yl)-6-chloro-8-fluoro-2-((hexahydro-pentalen-3a(1H)-yl)meth-oxy)quinazolin-7-yl)naph-thalen-2-ol]",< 0.5,> 0.5,
"Nc1nc2c(-c3c(Cl)cc4c(N5CCNCC(F)(F)C5)nc(OCC56CCCN5CCC6)nc4c3F)cccc2s1 [Compound 105, 4-(6-chloro-4-(6,6-difluoro-1,4-diazepan-1-yl)-8-fluoro-2-((tetrahydro-1H-pyrrol-izin-7a(5H)-yl)methoxy)-quinazolin-7-yl)benzo[d]-thiazol-2-amine]",,,"IC50 (wildtype Kras / hSOS1; [2]): < 0.5 µM; IC50 [1, 2]: < 0.5 µM"
"CN1CCC[C@H]1COc1nc(N2CCNCC(F)(F)C2)c2cc(Cl)c(-c3cccc4oc(C#N)nc34)c(F)c2n1 [Compound 185, 4-(6-chloro-4-(6,6-difluoro-1,4-diazepan-1-yl)-8-fluoro-2-(((S)-1-methylpyrrolidin-2-yl)methoxy)quinazolin-7-yl)benzo[d]oxazole-2-carbonitrile]",,,"IC50 (wildtype Kras / hSOS1; [2]): > 0.5 µM; IC50 [1, 2]: > 0.5 µM"
"Cc1ccc2cn[nH]c2c1-c1c(Cl)cc2c(N3CC4CCC(C3)N4)nc(OC[C@@]34CCCN3C[C@H](F)C4)nc2c1F [Compound 611, 4-(3,8-diazabicyclo[3.2.1]-octan-3-yl)-6-chloro-8-fluoro-2-(((2R,7aS)-2-fluorotetrahydro-1H-pyrrol-izin-7a(5H)-yl)methoxy)-7-(6-methyl-1H-indazol-7-yl)-quinazoline]",> 0.5,> 0.5,
